Experiments:
BMDC primary cells [1] = assay: Luc mRNA LNP transfection on BMDC primary cells (Embodiment 21, Table 9); type: cell-based, C57BL/6 mice; conditions: 16 h, ONE-Glo Luciferase
Protocol: Preparation method: the same as that in Embodiment 17.
Animal preparation: 6-week-old female C57BL/6 mice with the body weight about 20 g were selected. A feeding environment was an SPF stage feeding room. Animal tests were strictly performed according to the guide of the national health institute and the animal ethics requirements.
(§1) Cell acquisition: C57BL/6 mice were killed through cervical dislocation, and were soaked for 5 min in 75% ethyl alcohol. Dissection was performed to obtain thigh and calf tibiae of the mice. Attached muscles were removed to expose sclerotin. Then, bone marrow in tibiae was blown out by using a 1 mL injector sucked with PBS. After the bone marrow was blown away, impurities were filtered away by a 50 μm filter screen. A red blood cell lysis buffer (3-4 mL) was added into an obtained filtrate. Then, after placement for 5 min, 800 g centrifugation was performed for 5 min to remove a supernatant. The obtained cells were placed into a 1640 culture medium (containing 10% fetal calf serum, 20 ng/mL GMCSF and 10 ng/mL IL4) to be resuspended, and were inoculated into a 6-well plate at an inoculation density of 100000 cells/ml culture medium. The materials were placed into a 37° C. cell incubator containing 5% CO2. Half liquid change was performed once every 2 days. Suspended cells and loose wall attached cells were collected on the seventh day, and were inoculated to a 96-well all-white ELISA plate at the inoculation density of 20000 cells per well, and the volume of a culture medium was 100 μL.
(§2) Cell transfection: lipid nanoparticles coated with luciferase mRNA were added into a 96-well white ELISA plate laid with primary cells. The adding volume of the mRNA lipid nanoparticles in each well was controlled to be 10 μL. Then, the materials were put into a 37° C. incubator containing 5% CO2 for 16 h.
Transfection efficiency detection: 20 μL of a substrate ONE-Glo™ Luciferase was added into each well of a 96-well all-white ELISA plate, and after 1 min, detection was performed by a multifunctional or multimode microplate reader.

B16-OVA melanoma cells [2] = assay: OVA mRNA LNP vaccine, in-vivo immunity and tumor treatment (Embodiment 23); design: species or system C57BL/6 mice; conditions: B16-OVA tumor-bearing mice, two intramuscular injections of LNP with 5 μg OVA-mRNA, 7 days apart
Protocol: Preparation method: the amino lipid compounds of the disclosure, DSPC, cholesterol and PEG2000-DMG were mixed according to a mole ratio of 50:10:38.5:1.5 in absolute ethyl alcohol. OVA mRNA was dissolved in a sodium acetate buffer solution (50 nM, pH=4.0). The ratio of the ethyl alcohol solution to the acetate buffer solution (50 nM, pH=4.0) was controlled to be 1:3 by using two micro-injection pumps to prepare a coarse solution of the lipid nanoparticles in a micro-fluidic chip. Then, dialysis was performed for 6 h under the conditions of 1×PBS and temperature control at 4° C. by using a dialysis cassettes or box (MWCO 20,000). Before use, filtration was performed by a 0.22 μm microporous filtering membrane. A mass ratio of the amino lipid compound to OVA mRNA was about 8:1.
(§3) Animal preparation: 5-6-week-old female C57BL/6 mice with the body weight about 18 to 20 g were selected. The feeding environment was an SPF stage feeding room. Animal tests were strictly performed according to the guide of the national health institute and the animal ethics requirements.
(§4) In-vivo delivery: B16-OVA melanoma cells (1.5×10^5) were injected to the outer thighs of the mice through subcutaneous injection. When the tumor grew to 50 mm^3 (on the about 6th or 7th day after tumor inoculation), the mice began to inoculated vaccines, the animals were subjected to twice immunization through intramuscular injection of an LNP preparation containing 5 μg OVA-mRNA. An interval between first and second injections was 7 days. The tumor growth was measured for 3 times every week by a digital display calliper, and a calculation formula was […]. When the tumor size reached 1500 mm^3, the mice received euthanasia.

endosome/lysosome = conditions: background statement; cited from earlier work
HeLa cells = assay: In-vitro evaluation of E7C71A9, Compound A, B, C as Luc-mRNA vector (Embodiment 27, Table 14); type: cell-based; conditions: Luc-mRNA 100 ng/well, 16-20 h, relative to Lipofectamine3000, lipid:DSPC:cholesterol:PEG2000-DMG 43:10.5:45:1.5
Source text: • Cell line: HeLa cell line • Culture medium: 1640 […] supplemented with 10% fetal calf serum • Screening form: 96-well plate cell transfection • Detection: fluorescence intensity detection by a multifunctional microplate reader. According to manufacturer's instructions, Lipofectamine3000 was used as a positive control group. • Method: a pipette was used for sample addition. The shown content is the content of a single well of a 96-well plate.
1. Synthesis of E7C71A9, Compound A, Compound B, and Compound C was performed as described above. And these four ionizable amino lipid compounds were respectively mixed with DSPC, cholesterol and PEG2000-DMG into absolute ethyl alcohol. according to a mole ratio of 43:10.5:45:1.5, The Luc-mRNA was dissolved into a sodium acetate buffer solution ([…], pH=5.0). The mixed lipid solution was taken out by a pipette, and was added into the Luc-mRNA solution to be sufficiently mixed. A proportion ratio of the ethyl alcohol solution to the sodium acetate buffer solution ([…], pH=5.0) was controlled to be 1:3, and a nanoparticle solution was prepared. A mass ratio of the amino lipid compound to luciferase mRNA (Luc mRNA) was about 10:1, and the mRNA consumption in each well was 100 ng.
2. After the lipid nanoparticle solution was incubated for 30 min at room temperature, 100 μL of fresh resuspended HeLa cells (1×10^4 cells) were added into each well of a 96-well all-white ELISA plate. Then, the lipid nanoparticle solution was added into the 96-well plate (10 μL for each well) by a pipette. The solution was placed into a 37° C. incubator containing 5% CO2 to be incubated.
3. After 16 h to 20 h of cell initial transfection, a substrate ONE-Glo™ Luciferase was added into cells at 100 μL/well, and after 2 min, detection was performed by a multifunctional or multimode microplate reader.
4. The relative transfection efficiency was calculated as follows: Relative transfection efficiency (%)=fluorescence intensity of LNP/fluorescence intensity of Lipofectamine3000×100%.

BMDC primary cells [3] = assay: Luc mRNA LNP transfection of the four amino lipids on BMDC primary cells (Embodiment 28, Table 15); type: cell-based, C57BL/6 mice; conditions: Luc mRNA LNP 10 μL per well, 16 h, ONE-Glo Luciferase
Protocol: Preparation method: the same as that described above.
(§5) Animal preparation: 6-week-old female C57BL/6 mice with the body weight about 20 g were selected. The feeding environment was an SPF stage feeding room. Animal tests were strictly performed according to the guide of the national health institute and the animal ethics requirements.
as §1, with “remove the” for “remove a”, “10 ng/ml” for “10 ng/mL”, “were” for “were inoculated to a 96-well all-white ELISA plate at the inoculation density of 20000 cells”
as §2, with “all-white” for “white”
Transfection efficiency detection: 20 μL of a substrate ONE-Glo™ Luciferase was added into each well of a 96-well all-white ELISA plate. After 1 min, detection was performed by a multifunctional or multimode microplate reader. DLin-MC3 was used as a control.

B16-OVA melanoma cells [4] = assay: OVA mRNA LNP vaccine, in-vivo immunity and tumor treatment (Embodiment 15); design: species or system C57BL/6 mice; conditions: B16-OVA tumor-bearing mice, two intramuscular injections of LNP with 1 μg OVA-mRNA, 7 days apart
Protocol: Preparation method: the amino lipid compounds of the disclosure, DSPC, cholesterol and PEG2000-DMG were mixed according to a mole ratio of 50:10:38.5:1.5 and were dissolved in absolute ethyl alcohol. OVA mRNA was dissolved in a sodium acetate buffer solution (50 nM, pH=4.0). The obtained ethyl alcohol solution and the acetate buffer solution […] were mixed in a micro-fluidic chip according to a volume ratio of 1:3 by using a micro-fluidic preparation system to obtain lipid nanoparticles. Then, dialysis was performed for 6 h under the conditions of 1×PBS and temperature was controlled at 4° C. by using a dialysis cassettes or box (MWCO 20,000). Filtration was performed by a 0.22 μm microporous filtering membrane prior to use. The mass ratio of the amino lipid compound to OVA mRNA was about 10:1.
as §3
as §4, with “containing 1” for “containing 5”, “euthanasia. Additionally, 60% of mice (E7C71A9 group) and 40% of mice (E6C71A12 group) respectively reached the complete relieving effect.” for “euthanasia.”

BMDC primary cells [5] = assay: Luc mRNA LNP transfection on BMDC primary cells (Embodiment 13, Table 3); type: cell-based, C57BL/6 mice; conditions: 16 h, ONE-Glo Luciferase
Protocol: Preparation method: the same as that described in Embodiment 7.
as §5
as §1, with “remove the” for “remove a”, “10 ng/ml” for “10 ng/mL”, “were” for “were inoculated to a 96-well all-white ELISA plate at the inoculation density of 20000 cells”
as §2, with “all-white” for “white”
Transfection efficiency detection: 20 μL of a substrate ONE-Glo™ Luciferase was added into each well of a 96-well all-white ELISA plate. After 1 min, detection was performed by a multifunctional or multimode microplate reader.

CCCCCCCCCCC(COC(=O)C(CCCCCCCC)CCCCCCCC)OC(=O)CCCCN(C)C (stereo not shown) [E7C115A11]
Luciferase luminescence intensity (BMDC primary cells [1]): 2.4E+05
mice tumors completely disappeared (B16-OVA melanoma cells [2]): 90%
survival rate (B16-OVA melanoma cells [2]): 100%
survival rate compared with MC3 group (FIG. 6) (B16-OVA melanoma cells [2]): obviously superior to that of MC3 group
tumor growth speed compared with MC3 group (FIG. 5) (B16-OVA melanoma cells [2]): obviously lower than that of MC3 group

CCCCC/C=C\C/C=C\CCCCCCCCC(CCCCCCCC/C=C\C/C=C\CCCCC)OC(=O)CCCN(C)C [DLin-MC3, DLin-MC3-DMA]
RNA that escapes from the endosome/lysosome (endosome/lysosome): 1%-4%

CCCCCCCCCCC(CCOC(=O)C(CCCCCC)CCCCCCCC)OC(=O)CCCN(C)C (stereo not shown) [Compound A, 3-((4-(dimethylamino)butanoyl)oxy)tridecyl 2-hexyldecanoate]
Relative Transfection Efficiency (HeLa cells): 0.62
Fluorescence intensity (transfection expression intensity) (BMDC primary cells [3]): 4.9E+04

CCCCCCCCCCC(CCCCOC(=O)C(CCCCCC)CCCCCCCC)OC(=O)CCCN(C)C (stereo not shown) [Compound C]
Relative Transfection Efficiency (HeLa cells): 0.39
Fluorescence intensity (transfection expression intensity) (BMDC primary cells [3]): 9.3E+03

CCCCCCCCCCC(CCCOC(=O)C(CCCCCC)CCCCCCCC)OC(=O)CCCN(C)C (stereo not shown) [Compound B]
Relative Transfection Efficiency (HeLa cells): 0.45
Fluorescence intensity (transfection expression intensity) (BMDC primary cells [3]): 2.5E+04

CCCCCCCCCC(COC(=O)C(CCCCCC)CCCCCCCC)OC(=O)CCCCCN(C)C (stereo not shown) [E6C71A12]
mice that reached the complete relieving effect (B16-OVA melanoma cells [4]): 40%
result (survival curve, FIG. 4) compared with MC3 group (B16-OVA melanoma cells [4]): obviously superior to that of MC3 group
tumor growth speed compared with MC3 group (FIG. 3) (B16-OVA melanoma cells [4]): obviously lower than that of MC3 group
Luciferase luminescence intensity (BMDC primary cells [5]): 7.3E+ 04

CCCCCCCCCCC(COC(=O)C(CCCCCC)CCCCCCCC)OC(=O)CCCN(C)C (stereo not shown) [E7C71A9, 2-((4-(Dimethylamino)Butanoyl)Oxy) Dodecyl 2-Hexyldecanoate]
mice that reached the complete relieving effect (B16-OVA melanoma cells [4]): 60%
result (survival curve, FIG. 4) compared with MC3 group (B16-OVA melanoma cells [4]): obviously superior to that of MC3 group
tumor growth speed compared with MC3 group (FIG. 3) (B16-OVA melanoma cells [4]): obviously lower than that of MC3 group
Relative Transfection Efficiency (HeLa cells): 2.0
Luciferase luminescence intensity (BMDC primary cells [5]): 8.8E+ 04
Fluorescence intensity (transfection expression intensity) (BMDC primary cells [3]): 8.8E+04
